Experimental data reported in US6306613A, “Modulators of leaderless protein export and methods for identifying and using the same” (Ciblex Corporation, priority 1999, dated 2001).

How the values were obtained:
[1] = test system: secretion of hCG-α from COS cells; settings: cited from earlier work
[2] = test system: export of 18 kD FGF-2 from COS cells; settings: 25 μg/ml in chase medium; cited from earlier work
[3] = test system: IL-1α export from COS cells; assay: IL-1α export from transfected COS cells; format: cell-based; settings: 5 mM
Excerpt: A vector containing a leaderless protein gene. IL-1α, is transfected into COS cells. Cells are metabolically labeled and protein precipitated with anti-IL-1α antibody. […] In contrast to the export of FGF-2, the rate of IL-1 export is slower, having a T1/2 of greater than 24 hrs. […] In addition, IL-1α can be immunoprecipitated from co-transfected COS cells (transfected with IL-1α and the Na/K ATPase α1 subunit) using anti-α1 subunit antibody (FIG. 4).

[4] = test system: VSV N protein export from COS cells; format: cell-based
[5] = test system: export of FPT (FGF-2 neomycin phosphotransferase chimeric protein) from COS cells; assay: Export of FPT chimera from COS cells; format: cell-based
[6] = test system: export of FGF-2 mutein Cys78Ser + Cys96Ser (C78,96S) from COS cells; assay: FGF-2 mutein export with ouabain, Cys78Ser + Cys96Ser; format: cell-based
[7] = test system: export of FGF-2 mutein Arg118Ile from COS cells; assay: FGF-2 mutein export with ouabain, Arg118Ile; format: cell-based
[8] = test system: export of FGF-2 mutein Arg53Trp (R53W) from COS cells; assay: FGF-2 mutein export with ouabain, Arg53Trp; format: cell-based
[9] = test system: export of FGF-2 mutein Lys144Val (K144V) from COS cells; assay: FGF-2 mutein export with ouabain, Lys144Val; format: cell-based
[10] = test system: FGF-2 export from Na+/K+ ATPase α1 co-transfected COS cells; assay: FGF-2 export from COS cells co-transfected with rat Na+/K+ ATPase α1; format: cell-based; settings: twenty-four hours post labeling
[11] = test system: export of FGF-2 mutein Lys134Thr (K134T) from COS cells; assay: FGF-2 mutein export with ouabain, Lys134Thr; format: cell-based
[12] = test system: secretion of hCG-α from COS cells; assay: hCG-α secretion from transfected COS cells (leader sequence control); format: cell-based
Method: An expression vector encoding hCG-cc (Guan et al., J. Biol. Chem. 263:5306-5313, 1988), which has a signal sequence, is used as a control to monitor proteins trafficked through the ER/Golgi.
COS cells are co-transfected as described above with plasmids expressing FGF-2, hCG-α, or neomycin phosphotransferase. Metabolic labeling is performed as described above, except that during the chase period, modulator that inhibits export is added at 10 nM to 1 mM in log increments. At the end of the chase, cells and cell media are harvested and processed for immune precipitations as described above.

[13] = test system: export of F-gal (FGF-2 β-gal chimeric protein) from COS cells; assay: Export of F-gal chimera from COS cells; format: cell-based
[14] = test system: export of 18 kD FGF-2 from COS cells; assay: FGF-2 export from transfected COS cells, pulse-chase and immunoprecipitation; format: cell-based; settings: for inhibition of export of FGF-2 / IC50: COS cells; for inhibition of export of FGF-2: 10 nM to 1 mM in chase; for IC50: FGF-2 export, modulator in chase medium, read-out: concentration that inhibits 50% of leaderless protein export
Method: For an immunoprecipitation assay after transfection, the COS cells are metabolically pulse-labeled for 15 minutes with 100 μCi of ^35 S-methionine and ^35 S-cysteine (Trans ^35 S-label, ICN Biomedicals, Irvine, Calif.) in 1 ml of methionine and cysteine free DMEM. Following labeling, the cell monolayers are washed once with DMEM supplemented with excess (10 mM) unlabeled methionine and cysteine for 1-2 minutes. Cells are then cultured in 2 ml of this medium for the indicated lengths of time and the cell supernatants are immunoprecipitated for the presence of leaderless protein. For the indicated cultures, chase medium is supplemented with modulator at the indicated concentrations.
COS cells are cultured in Dulbecco's Modified Eagle Medium (DMEM, University of California San Diego Core Facility) supplemented with 10% fetal bovine serum (Gemini Bioproducts, Inc.), 2 mM L-glutamine, 1 mM sodium pyruvate, 0.1 mM non-essential amino acids, 100 units/ml penicillin, and 100 units/ml streptomycin. An SV-40-based expression vector containing the wild type (human) cDNA encoding multiple FGF-2 isoforms (24, 23, 22 and 18-kD) has been described previously (Florkiewiczand Sommer, supra). Approximately 3×10^5 COS cells in a 60 mm tissue culture dish are transfected with 10 μg of CsCl-purified plasmid DNA mixed with 1.0 ml of transfection buffer (140 mM NaCl, 3 mM KCl, 1 mM CaC'2, 0.5 mM MgCl2, 0.9 mM Na2 HPO4, 25 mM Tris pH 7.4; all from Sigma Chemical Company, Stl. Louis, Mo.). Under these co-transfection conditions using 2 μg of p18dx plus 10 μg pMAMneo, greater than 70% of transfected cells express both proteins, as determined by immunofluorescence microscopy. The ratio of plasmid DNA may be varied with an insignificant change in results. Forty to 48 hours post-DNA transfection COS cells are metabolically pulse-labeled for 15 minutes with 100 μCi of ^35 S-methionine and ^35 S-cysteine (Trans^35 S-label, ICN Biomedicals, Inc.) in 1.0 ml of methionine-and cysteine-free DMEM. After pulse-labeling, the cell monolayers are washed once with DMEM supplemented with excess (10 mM) unlabeled methionine and cysteine (Sigma Chemical Company) and then cultured in 1.0 ml of the same medium (chase) for the indicated lengths of time. Cultures treated with brefeldin A include 15 μg/ml of brefeldin A in the chase medium. Chase medium is also supplemented with 25 μg/ml heparin (Sigma Chemical Company). Although heparin is not necessary to qualitatively detect FGF-2 export, it is necessary in order to quantitatively detect the export of FGF-2 in this assay.
Cell and medium fractions are prepared for immunoprecipitation essentially as described previously (Florkiewicz et al., 1991) except that 400 μl of lysis buffer without NaCl (1% NP-40, 0.5% deoxycholate, 20 mM Tris pH 7.5, 5 mM EDTA, 2 mM EGTA, 0.01 mM phenylinethylsufonyl fluoride, 10 ng/ml aprotiniul, 10 ng/ml leupeptin, and 10 ng/ml pepstatin) is added to the medium fraction clarified by microfuge centrifugation for 15 minutes at 4° C. before adding immune serum. Both cell and medium fractions are incubated with a 1:200 dilution of guinea pig anti-FGF-2 immune serum (prepared in our laboratory) at 21° C. for 40 minutes and then GammaBind G Sepharose® (Pharmacia LKB Biotechnology) is added for an additional 30 minute incubation. […]

C[C@H]1CCC/C=C/[C@@H]2C[C@H](O)C[C@H]2[C@H](O)/C=C/C(=O)O1 [Brefeldin A]
sensitivity of hCG-α secretion [1]: brefeldin sensitive
effect on FGF-2 export [2]: no substantial effect

C[C@@H]1O[C@@H](O[C@H]2C[C@@H](O)[C@]3(CO)[C@H]4[C@H](O)C[C@]5(C)[C@@H](C6=CC(=O)OC6)CC[C@]5(O)[C@@H]4CC[C@]3(O)C2)[C@H](O)[C@H](O)[C@H]1O [Ouabain]
inhibition of IL-1α export [3]: inhibted
sensitivity of N protein export [4]: ouabain-resistant
inhibition of export of FPT [5]: can be inhibited
FGF-2 in Cells, 7 hr (+) Ouabain ([6]; C78,96S): 62%
FGF-2 in Media, 7 hr (+) Ouabain ([6]; C78,96S): 38%
Effect of Ouabain on Export ([6]; Cys78Ser + Cys96Ser): decrease
Effect of Ouabain on Export [7]: decrease
FGF-2 in Cells, 7 hr (+) Ouabain [7]: 79%
FGF-2 in Media, 7 hr (+) Ouabain [7]: 21%
Effect of Ouabain on Export ([8]; Arg53Trp): decrease
FGF-2 in Cells, 7 hr (+) Ouabain ([8]; R53W): 70%
FGF-2 in Media, 7 hr (+) Ouabain ([8]; R53W): 30%
FGF-2 in Cells, 7 hr (+) Ouabain ([9]; K144V): 70%
FGF-2 in Media, 7 hr (+) Ouabain ([9]; K144V): 30%
Effect of Ouabain on Export ([9]; Lys144Val): decrease
FGF-2 in media at 1 mM [10]: significant amounts of FGF-2 can be detected in media
FGF-2 in Cells, 7 hr (+) Ouabain [11]: 70%
FGF-2 in Media, 7 hr (+) Ouabain [11]: 30%
effect on secretion of hCG-α [12]: does not affect secretion of hCG-α
inhibition of export of F-gal [13]: can be inhibited
inhibition of FGF-2 export at 1 mM ([14]; 1 mM, FGF-2 only transfected COS cells): completely inhibit
inhibition of export of FGF-2 [14]: inhibit
IC50 [14]: ~100 nM

C[C@H]1O[C@@H](O[C@H]2[C@@H](O)C[C@H](O[C@H]3[C@@H](O)C[C@H](O[C@H]4CC[C@@]5(C)[C@H](CC[C@@H]6[C@@H]5C[C@@H](O)[C@]5(C)[C@@H](C7=CC(=O)OC7)CC[C@]65O)C4)O[C@@H]3C)O[C@@H]2C)C[C@H](O)[C@@H]1O [digoxin]
inhibition of export of FGF-2 [14]: inhibit
IC50 [14]: ~5000 nM
